Test [1] relates to primary human AML cells. In words: Clonogeneic growth in semisolid media. Type of test: cell-based. The settings on record: 12-14 days in semi-solid medium; FIG. 3A. The text has this: For FIG. 3A, primary human AML cells (n=5) were thawed and grown for 12-14 days in semi-solid medium with the indicated concentration of Lip-C6 or Lip-ghost and/or vinblastine.
Test [2] relates to Pane 1 pancreatic cancer cells. In words: MTS cell viability assay. The format is cell-based. As to conditions: 24 hrs; 3.2 μM liposomes; 0.01, 0.1 or 1 μM vinblastine; p<0.05 free vs encapsulated vinblastine. On the procedure: Pane 1 pancreatic cancer cells were treated with 3.2 μM anionic (A) and neutral ceramide (C6) or non-ceramide nanoliposomes that either contained 0.01, 0.1 or 1 μM vinblastine or PBS. Ghost liposomes contained no ceramide or vinblastine. Unencapsulated (free) vinblastine was also administered at similar concentrations. All treatments were for 24 hrs.
Cell viability was assessed by MTS assay, which measures cellular respiration as a function of reduction of MTS to formazene at 490 nm. […] N=6 individual samples for each condition, replicated in triplicate.
MTS (3-(4,5-dimethylthiazol-2-yl)-5-(3-carboxymethoxyphenyl)-2-(4-sulfophenyl)-2H-tetrazolium), in the presence of phenazine methosulfate (PMS), produces a reduced formazan product, whose purple color can be assessed. In living cells, reduced formazan has an absorbance maximum at 490-500 nm in phosphate-buffered saline. The MTS assay is often described as a ‘one-step’ MTT assay, which offers the convenience of adding the reagent straight to the cell culture without the intermittent steps required in the MTT assay. However this convenience makes the MTS assay susceptible to cololmetric interference as the intermittent steps in the MTT assay remove traces of colored compounds, whilst these remain in the microtiter plate in the one-step MTS assay.

Experimental findings from patent US8747891B2, “Ceramide anionic liposome compositions” (The Penn State Research Foundation, priority 2011, dated 2014) are described below.

`CC[C@]1(O)C[C@@H]2CN(CCc3c([nH]c4ccccc34)[C@@](C(=O)OC)(c3cc4c(cc3OC)N(C)[C@H]3[C@@](O)(C(=O)OC)[C@H](OC(C)=O)[C@]5(CC)C=CCN6CC[C@]43[C@@H]65)C2)C1` [vinblastine]: the “growth and survival / colony formation” value in test [1] was “potentiates the inhibitory activity of C6 ceramide nanoliposomes”. Further, the “cell viability (MTS)” value in test [2] is “Only the high concentration of free vinblastine reduced cell viability”.
